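96-well plates; 48 h exposure; 5 concentrations. Endpoints by linear interpolation between flanking doses. Not reached: highest tested concentration assigned. Here, GI50 denotes the concentration required for 50% inhibition of growth.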 The source made the active and inactive calls. No stated cut-off is given here; in the data, active = GI50 up to about 1.1 µM and inactive = higher.
Tests used:
Assay in all cases: growth of human tumour cells (NCI), 48 h
K562 = system: K562
HL-60 = system: HL-60
SR = system: SR
CCRF-CEM = system: CCRF-CEM
Malme-3M = system: Malme-3M
OVCAR-4 = system: OVCAR-4
SF-295 = system: SF-295
MDA-MB-231 = system: MDA-MB-231
SW-620 = system: SW-620
SK-OV-3 = system: SK-OV-3
NCI/ADR-RES = system: NCI/ADR-RES
SF-539 = system: SF-539
UO-31 = system: UO-31
SN12C = system: SN12C
EKVX = system: EKVX
COLO 205 = system: COLO 205
M14 = system: M14
HT-29 = system: HT-29
TK-10 = system: TK-10
HCT-116 = system: HCT-116
HOP-92 = system: HOP-92
IGROV-1 = system: IGROV-1
NCI-H226 = system: NCI-H226
HOP-62 = system: HOP-62
SNB-75 = system: SNB-75
RPMI-8226 = system: RPMI-8226
MOLT-4 = system: MOLT-4
SK-MEL-28 = system: SK-MEL-28
HCT-15 = system: HCT-15
OVCAR-5 = system: OVCAR-5
LOX IMVI = system: LOX IMVI
UACC-257 = system: UACC-257
A549 = system: A549
786-0 = system: 786-0
SK-MEL-2 = system: SK-MEL-2
NCI-H23 = system: NCI-H23
PC-3 = system: PC-3
RXF 393 = system: RXF 393
SK-MEL-5 = system: SK-MEL-5
T47D = system: T47D
OVCAR-3 = system: OVCAR-3
ACHN = system: ACHN
UACC-62 = system: UACC-62
NCI-H522 = system: NCI-H522
HCC 2998 = system: HCC 2998
CAKI-1 = system: CAKI-1
MDA-MB-435 = system: MDA-MB-435
A498 = system: A498
DU-145 = system: DU-145
U-251 = system: U-251
MDA-N = system: MDA-N
KM12 = system: KM12
SNB-19 = system: SNB-19
MCF7 = system: MCF7
OVCAR-8 = system: OVCAR-8
SF-268 = system: SF-268
NCI-H460 = system: NCI-H460
Hs-578T = system: Hs-578T

`COC(=O)C1=CC(NC(=O)OCc2ccccc2)C(C(=O)c2ccccc2)C[C@@H]1Sc1ccccc1` (stereo partly specified) was tested, and the GI50 (K562) was 2.19 µM (inactive), the GI50 (HL-60) was 1.09 µM (active) and the GI50 (SR) was < 0.01 µM (active). The GI50 (CCRF-CEM) was 1.47 µM (inactive).

In the case of `C=C1C(=O)O[C@@H]2C(=O)[C@@H](C)CCC/C(C)=C/CC[C@@]3(C)O[C@@H]3C[C@@H]12`, the GI50 (Malme-3M) is reported as 23 µM (inactive), the GI50 (OVCAR-4) is reported as 79.4 µM (inactive) and the GI50 (SF-295) is reported as > 100 µM (inactive). For the same compound, the GI50 (MDA-MB-231) was 53.8 µM (inactive), the GI50 (SW-620) was 20.8 µM (inactive) and the GI50 (SK-OV-3) was > 100 µM (inactive). For the same compound, the GI50 (NCI/ADR-RES) was 95.3 µM (inactive), the GI50 (SF-539) was 25.2 µM (inactive) and the GI50 (UO-31) was 92.7 µM (inactive). For the same compound, the GI50 (SN12C) was 40.3 µM (inactive), the GI50 (EKVX) was 37.7 µM (inactive) and the GI50 (COLO 205) was 24 µM (inactive). The GI50 (M14) was 54.2 µM (inactive), the GI50 (HT-29) was 14.3 µM (inactive) and the GI50 (TK-10) was 27.7 µM (inactive). For the same compound, the GI50 (HCT-116) was 29.4 µM (inactive), the GI50 (HOP-92) was 13.2 µM (inactive) and the GI50 (IGROV-1) was 15.7 µM (inactive). The GI50 (NCI-H226) was > 100 µM (inactive), the GI50 (HOP-62) was > 100 µM (inactive) and the GI50 (SNB-75) was 0.438 µM (active). The GI50 (RPMI-8226) was 18.6 µM (inactive), the GI50 (MOLT-4) was 28.6 µM (inactive) and the GI50 (SK-MEL-28) was > 100 µM (inactive). For the same compound, the GI50 (HCT-15) was 20.2 µM, the GI50 (OVCAR-5) was > 100 µM (inactive) and the GI50 (LOX IMVI) was 18.9 µM (inactive). The GI50 (UACC-257) was 56.8 µM (inactive), the GI50 (A549) was > 100 µM (inactive) and the GI50 (786-0) was 21.3 µM (inactive). For the same compound, the GI50 (K562) was 16.4 µM (inactive), the GI50 (SK-MEL-2) was > 100 µM (inactive) and the GI50 (NCI-H23) was > 100 µM (inactive). The GI50 (PC-3) was 47 µM (inactive), the GI50 (RXF 393) was 3.75 µM (inactive) and the GI50 (HL-60) was 16.5 µM (inactive). For the same compound, the GI50 (SK-MEL-5) was 29.9 µM (inactive), the GI50 (T47D) was 87.9 µM (inactive) and the GI50 (OVCAR-3) was 46.3 µM (inactive). For the same compound, the GI50 (ACHN) was 36.9 µM (inactive), the GI50 (UACC-62) was 41.7 µM (inactive) and the GI50 (NCI-H522) was 12.1 µM (inactive). For the same compound, the GI50 (HCC 2998) was > 100 µM (inactive), the GI50 (CAKI-1) was 19.9 µM (inactive) and the GI50 (MDA-MB-435) was 51.3 µM (inactive). The GI50 (CCRF-CEM) was 11.8 µM (inactive), the GI50 (A498) was > 100 µM (inactive) and the GI50 (DU-145) was 75.2 µM (inactive). The GI50 (U-251) was 98.9 µM (inactive), the GI50 (MDA-N) was 34.4 µM (inactive) and the GI50 (KM12) was 29.8 µM (inactive). The GI50 (SNB-19) was > 100 µM (inactive), the GI50 (MCF7) was 36.3 µM (inactive) and the GI50 (OVCAR-8) was 68.5 µM (inactive).

`CC1(C)CC(=O)C(C(CC(c2ccccc2)c2cc3c(cc2O)OCO3)C2=C(O)CC(C)(C)CC2=O)=C(O)C1` (stereo unspecified) was tested, and the GI50 (OVCAR-4) was > 10 µM (inactive), the GI50 (SF-295) was > 10 µM (inactive) and the GI50 (MDA-MB-231) was > 10 µM (inactive). For the same compound, the GI50 (SW-620) was > 10 µM (inactive), the GI50 (NCI/ADR-RES) was > 10 µM (inactive) and the GI50 (SF-539) was > 10 µM (inactive). For the same compound, the GI50 (UO-31) was > 10 µM (inactive), the GI50 (SN12C) was > 10 µM (inactive) and the GI50 (EKVX) was > 10 µM (inactive). For the same compound, the GI50 (COLO 205) was > 10 µM (inactive), the GI50 (M14) was > 10 µM (inactive) and the GI50 (HT-29) was > 10 µM (inactive). For the same compound, the GI50 (TK-10) was > 10 µM (inactive), the GI50 (HCT-116) was > 10 µM (inactive) and the GI50 (HOP-92) was > 10 µM (inactive). For the same compound, the GI50 (IGROV-1) was > 10 µM (inactive), the GI50 (NCI-H226) was > 10 µM (inactive) and the GI50 (SNB-75) was > 10 µM (inactive). The GI50 (HCT-15) was > 10 µM, the GI50 (OVCAR-5) was > 10 µM (inactive) and the GI50 (A549) was > 10 µM (inactive). For the same compound, the GI50 (NCI-H23) was > 10 µM (inactive), the GI50 (PC-3) was > 10 µM (inactive) and the GI50 (RXF 393) was > 10 µM (inactive). The GI50 (SK-MEL-5) was > 10 µM (inactive), the GI50 (OVCAR-3) was > 10 µM (inactive) and the GI50 (ACHN) was > 10 µM (inactive). For the same compound, the GI50 (CAKI-1) was > 10 µM (inactive), the GI50 (MDA-MB-435) was > 10 µM (inactive) and the GI50 (A498) was > 10 µM (inactive). For the same compound, the GI50 (DU-145) was > 10 µM (inactive), the GI50 (U-251) was > 10 µM (inactive) and the GI50 (MDA-N) was > 10 µM (inactive). For the same compound, the GI50 (KM12) was > 10 µM (inactive), the GI50 (SNB-19) was > 10 µM (inactive) and the GI50 (SF-268) was > 10 µM (inactive). The GI50 (OVCAR-8) was > 10 µM (inactive).

In the case of `COc1ccc(/C=C2/S/C(=N\c3ccccc3)N(NC(=O)Cc3ccccc3)C2=O)c(OC)c1`, the GI50 (OVCAR-4) is reported as > 100 µM (inactive), the GI50 (SF-295) is reported as > 100 µM (inactive) and the GI50 (MDA-MB-231) is reported as 69 µM (inactive). For the same compound, the GI50 (SW-620) was > 100 µM (inactive), the GI50 (SK-OV-3) was > 100 µM (inactive) and the GI50 (NCI-H460) was > 100 µM (inactive). For the same compound, the GI50 (NCI/ADR-RES) was > 100 µM (inactive), the GI50 (SF-539) was > 100 µM (inactive) and the GI50 (UO-31) was 98.9 µM (inactive). The GI50 (SN12C) was > 100 µM (inactive), the GI50 (EKVX) was > 100 µM (inactive) and the GI50 (COLO 205) was > 100 µM (inactive). The GI50 (M14) was > 100 µM (inactive), the GI50 (HT-29) was > 100 µM (inactive) and the GI50 (TK-10) was > 100 µM (inactive). For the same compound, the GI50 (HCT-116) was > 100 µM (inactive), the GI50 (HOP-92) was 3.37 µM (inactive) and the GI50 (IGROV-1) was > 100 µM (inactive). For the same compound, the GI50 (NCI-H226) was > 100 µM (inactive), the GI50 (HOP-62) was > 100 µM (inactive) and the GI50 (SNB-75) was > 100 µM (inactive). For the same compound, the GI50 (RPMI-8226) was > 100 µM (inactive), the GI50 (MOLT-4) was 68.7 µM (inactive) and the GI50 (SK-MEL-28) was > 100 µM (inactive). The GI50 (Hs-578T) was > 100 µM (inactive), the GI50 (HCT-15) was > 100 µM and the GI50 (OVCAR-5) was > 100 µM (inactive). For the same compound, the GI50 (UACC-257) was > 100 µM (inactive), the GI50 (A549) was > 100 µM (inactive) and the GI50 (786-0) was > 100 µM (inactive). The GI50 (K562) was 89.9 µM (inactive), the GI50 (SK-MEL-2) was > 100 µM (inactive) and the GI50 (NCI-H23) was > 100 µM (inactive). The GI50 (RXF 393) was > 100 µM (inactive), the GI50 (SK-MEL-5) was 69.5 µM (inactive) and the GI50 (T47D) was 43.9 µM (inactive). For the same compound, the GI50 (OVCAR-3) was > 100 µM (inactive), the GI50 (ACHN) was > 100 µM (inactive) and the GI50 (UACC-62) was > 100 µM (inactive). For the same compound, the GI50 (HCC 2998) was 82.6 µM (inactive), the GI50 (MDA-MB-435) was > 100 µM (inactive) and the GI50 (CCRF-CEM) was 82.6 µM (inactive). The GI50 (A498) was > 100 µM (inactive), the GI50 (DU-145) was > 100 µM (inactive) and the GI50 (U-251) was > 100 µM (inactive). For the same compound, the GI50 (MDA-N) was > 100 µM (inactive), the GI50 (KM12) was > 100 µM (inactive) and the GI50 (SNB-19) was > 100 µM (inactive). For the same compound, the GI50 (MCF7) was > 100 µM (inactive), the GI50 (SF-268) was > 100 µM (inactive) and the GI50 (OVCAR-8) was > 100 µM (inactive).
